Data as given in US10259796B2, “Oxaspiro[2.5]octane derivatives and analogs” (Zafgen, Inc., priority 2011, dated 2019).
Where two headings read alike, the source gives them in different places.

Assays:
[1] = Body weight % difference, diet-induced obese mice dosed PO once a day for 10 days with 3 mg/kg; type: in vivo; conditions: diet-induced obese C57BL/6NTac mice
MetAP2 enzyme = biological target: T1, MetAP2 enzyme (Mus musculus, UniProt O08663); experiment: THX1 N-terminal peptide in mouse testes (MetAP2 inhibition in testes) after 10 days PO 3 mg/kg; type: in vivo; conditions: mice, PO once a day for 10 days, testes taken 24 hours after last dose
T1 construct: from tissue; host or cells: testes of diet-induced obese C57BL/6NTac mice
Procedure: Diet-induced obese mice, C57BL/6NTac mice, were dosed PO once a day for 10 days with 3 mg/kg of compound 201 (fumagillin), 202, 203, 231 and 233. On day 11, 24 hours after the last dose the mice are sacrificed and the testes are dissected out and frozen. The frozen testes are subsequently homogenized and subjected to endoproteinase Glu-C digestion. The resulting digest mixture is analyzed by LC-MS/MS to quantitate the level of the N-terminal peptide of thioredoxin (Thrx), amino acid 1-6. Thioredoxin is a selective substrate of the MetAP2 enzyme and the degree of unprocessed thioredoxin (amino acid 1-6 rather than the processed des-Met thioredoxin amino acid 2-6) is indicative of the level of MetAP2 inhibition in a given tissue.

recombinant human MetAP2 = biological target: T2, recombinant human MetAP2 (Homo sapiens, UniProt P50579); experiment: MetAP2 enzyme assay (inhibition of recombinant MetAP2, Met-Gly-Met-Met substrate); type: biochemical; conditions: 50 nM
T2 construct: made in house; host or cells: High Five insect cells (Bac-to-Bac baculovirus)
Procedure: Exemplary procedures for expression and purification of MetAP2 are shown in Griffith et al. (PNAS (1998) 95(26):15183-15188). Briefly, recombinant His-tagged human MetAP2 is expressed by using a Bac-to-Bac baculovirus expression system (GIBCO/BRL). Recombinant baculovirus stocks are generated and amplified as per the manufacturer's instructions. Protein is harvested 36 hr after baculovirus infection of two 15-cm plates of High Five cells.
The cell pellet are weighed and lysed (in 5 ml/g of wet pellet) in pre-chilled lysis buffer [buffer B+1% Nonidet P-40/1 mM phenymethylsulfonyl fluoride (PMSF)/2 μg/ml leupeptin/2 μg/ml aprotinin/1 μg/ml pepstatin]. The lysate is incubated on ice for 10 min and centrifuged at 10,000×g for 10 min. […] The Talon resin is pelleted by centrifugation at 1,200×g for 3 min and washed with 4×10 ml of buffer B. During the final wash, the resin is slurried into a Bio-Rad Econo column. The 6×His-tagged MetAP2 is eluted with 6 ml of 50 mM imidazole in buffer B, and 0.5 ml fractions are collected. The amount and purity of recombinant MetAP2 is analyzed by the absorbance at 280 nm and SDS/PAGE (10% gel). The fractions containing the highest amounts of MetAP2 are pooled and dialyzed against 3 liters of buffer B overnight before storage at 4° C.
An enzyme assay is performed in a 96-well format as described in Griffith et al. (PNAS (1998) 95(26):15183-15188). […] To begin the enzymatic reaction, Met-Gly-Met-Met is added to a final concentration of 4 mM and incubated at 37° C. The reaction is quenched after 20 min by adding EDTA to a concentration of 10 mM. Released methionine is quantitated as described in Ben-Bassat et al. (J Bacteriol (1987) 169:751-757).
IC50 values are calculated and compounds herein are determined to be active inhibitors of MetAP2, with some having nanomolar activities.

[2] = Cell Based Assay (inhibition range)
[3] = Mice weight loss, 7 day, 1 mg/kg/day oral gavage, diet-induced obese mice; type: in vivo; conditions: Mus musculus, 168 h, read-out: Mice Wt Loss 7 day % WL 1 mpk
Source text: Lean body mass is important to normal function in subjects. Substantial loss of lean body mass is not a desirable consequence of a therapy for an overweight or obese subject. A study is undertaken to analyze weight loss with respect to lean body mass.
Mice are divided into two groups, a diet-induced obese group and a lean group (control). For the diet-induced obese group, C57BL/6NTac mice maintained prior to and during the study on a diet containing 60% fat on a kilocalorie basis are further divided into two groups, fifteen mice per group. Average body weight of these diet-induced obese mice is 40 g at the start of the study. For the lean group, fifteen C57BLI6NTac mice are maintained on a diet containing 4.3% by weight fat prior to and during the study. Average body weight of these lean mice is 33 g at the start of the study. Daily food consumption is also recorded.
Compounds of the invention are administered to one of the diet-induced obese mice groups by oral gavage as a solution in 10% DMSO, at dose of 1 mg/kg/day, 7 days. The other diet-induced obese mice group and the lean mice group are not administered anything.

[4] = 1 hr, read-out: MetAP2 Enzyme Assay 1 hr 50 nM
[5] = 2 hr, read-out: MetAP2 Enzyme Assay 2 hr 50 nM
[6] = 4 hr, read-out: MetAP2 Enzyme Assay 4 hr 50 nM
[7] = diet-induced obese C57BL/6NTac mice, oral gavage, 1 mg/kg/day, 7 days

T1 sequence (O08663 whole entry): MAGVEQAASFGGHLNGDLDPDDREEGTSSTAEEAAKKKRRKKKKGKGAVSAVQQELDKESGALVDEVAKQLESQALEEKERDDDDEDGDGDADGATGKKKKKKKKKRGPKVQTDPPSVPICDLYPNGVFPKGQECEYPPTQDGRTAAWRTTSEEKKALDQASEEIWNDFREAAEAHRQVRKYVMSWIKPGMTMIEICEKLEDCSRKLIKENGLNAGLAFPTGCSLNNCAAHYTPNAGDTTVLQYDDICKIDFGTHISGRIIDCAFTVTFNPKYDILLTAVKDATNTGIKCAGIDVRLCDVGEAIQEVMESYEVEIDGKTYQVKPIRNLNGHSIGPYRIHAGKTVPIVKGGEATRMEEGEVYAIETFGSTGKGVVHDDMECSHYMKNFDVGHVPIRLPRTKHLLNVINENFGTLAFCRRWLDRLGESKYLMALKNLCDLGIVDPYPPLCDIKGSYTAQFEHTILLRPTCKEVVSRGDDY
T2 sequence (P50579 whole entry): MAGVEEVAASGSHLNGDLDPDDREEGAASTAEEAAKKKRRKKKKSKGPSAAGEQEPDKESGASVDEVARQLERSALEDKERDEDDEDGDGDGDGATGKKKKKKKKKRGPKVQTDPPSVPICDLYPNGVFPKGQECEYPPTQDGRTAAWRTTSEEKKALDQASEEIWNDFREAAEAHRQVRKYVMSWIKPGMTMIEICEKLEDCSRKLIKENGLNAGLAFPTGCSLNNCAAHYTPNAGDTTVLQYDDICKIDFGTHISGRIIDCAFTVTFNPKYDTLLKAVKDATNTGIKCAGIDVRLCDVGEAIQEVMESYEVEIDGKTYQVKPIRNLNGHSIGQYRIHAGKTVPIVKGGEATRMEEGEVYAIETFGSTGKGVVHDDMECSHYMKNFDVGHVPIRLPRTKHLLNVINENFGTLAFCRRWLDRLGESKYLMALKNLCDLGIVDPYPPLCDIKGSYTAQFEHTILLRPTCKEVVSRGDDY

SMILES	weight loss over 10 days of treatment [1]	inhibition of the enzyme (MetAP2) in the testes, by THX1 N-terminal peptide (MetAP2 enzyme)	inhibition at 0.05 µM (recombinant human MetAP2; [4])	inhibition at 0.05 µM (recombinant human MetAP2; [5])	inhibition at 0.05 µM (recombinant human MetAP2; [6])	IC50 ([2]; cells printed in nM)	change in vivo at 1 mg/kg ([3]; po)	IC50 ([2]; in uM)	change in vivo at 1 mg/kg [3, 7]
CCCCCCCCCCC(=O)O[C@@H]1CC[C@]2(CO2)[C@@H]([C@@]2(C)O[C@@H]2CC=C(C)C)[C@@H]1OC [compound 216]	robust weight loss	No inhibition							
COC(=O)CCCCCCCCC(=O)O[C@@H]1CC[C@]2(CO2)[C@@H]([C@@]2(C)O[C@@H]2CC=C(C)C)[C@@H]1OC [compound 205]	robust weight loss	No inhibition							
CO[C@@H]1[C@H](OC(=O)N[C@@H](C(N)=O)C(C)C)CC[C@]2(CO2)[C@H]1[C@@]1(C)O[C@@H]1CC=C(C)C [Example 3]			62%	90%	100%	< 10 nM	5%		
CCCCCCCCCC=C1CC[C@]2(CO2)[C@@H]([C@@]2(C)O[C@@H]2CC=C(C)C)[C@@H]1OC [Example 20]			0%	0%	0%		0.4%	> 1000 nM	
CO[C@@H]1[C@H](OC(=O)CCCCCCCCC(=O)O[C@@H]2CC[C@]3(CO3)[C@@H]([C@@]3(C)O[C@@H]3CC=C(C)C)[C@@H]2OC)CC[C@]2(CO2)[C@H]1[C@@]1(C)O[C@@H]1CC=C(C)C [Example 27]					48%	10 to 100 nM	4.4%		
COC(=O)CCCCCCCCCO[C@@H]1CC[C@]2(CO2)[C@@H]([C@@]2(C)O[C@@H]2CC=C(C)C)[C@@H]1OC [Example 19]			0%	0%	0%			> 1000 nM	-0.9%
CO[C@@H]1[C@H](OC(=O)N[C@@H](C(=O)NCCC2CCCN2C)C(C)C)CC[C@]2(CO2)[C@H]1[C@@]1(C)O[C@@H]1CC=C(C)C (stereo partly drawn) [Example 33]					43%	< 10 nM			2.1%
CO[C@@H]1C(=O)CC[C@]2(CO2)[C@H]1[C@@]1(C)O[C@@H]1CC=C(C)C [Example 8, fumagillin ketone]			46%	65%	93%	< 10 nM	11.3%		
CO[C@@H]1[C@@H](F)CC[C@]2(CO2)[C@H]1[C@@]1(C)O[C@@H]1CC=C(C)C [Example 23]			23%	28%	27%	10 to 100 nM			-0.33%
CO[C@@H]1[C@H](OC(=O)CCCCCCCCC(=O)O)CC[C@]2(CO2)[C@H]1[C@@]1(C)O[C@@H]1CC=C(C)C [compound 206]	robust weight loss	No inhibition							
CO[C@@H]1[C@H](OC(=O)NCCC2CCCN2C)CC[C@]2(CO2)[C@H]1[C@@]1(C)O[C@@H]1CC=C(C)C (stereo partly drawn) [Example 29]					63%	< 10 nM			5.7%
CO[C@@H]1[C@H](OC(=O)/C=C/C=C/C=C/C=C/C(=O)O)CC[C@]2(CO2)[C@H]1[C@@]1(C)O[C@@H]1CC=C(C)C [compound 201, fumagillin, reference compound]	robust weight loss	No inhibition							
